The results in this text go back to patent US4882316A, “Pyrimidine derivatives” (Hoffmann-La Roche Inc., priority 1986, dated 1989).

This assay deals with herpes simplex virus type 2 (HSV-2) thymidine kinase (Human herpesvirus 2, UniProt P89446). Kind of assay: inhibition of herpes simplex virus type 2 (HSV-2) thymidine kinase in vitro (3H-thymidine phosphorylation). In kind it is biochemical. To be noted: thymidine kinase extract; 50 mM Tris-HCl, pH 8; 5 mM MgCl2; 5 mM ATP; 0.3 μM 3H-thymidine; 37° C., 30 minutes; read-out: IC50 (concentration of the test compound which inhibits enzyme activity by 50%). The protocol: The assay mixture contains 50 mM Tris-HCl, pH 8, 5 mM magnesium chloride, 5 mM ATP, 0.3 μM ^3 H-thymidine (50 Ci/mmol), suitably diluted thymidine kinase extract and various concentrations of the test compounds in a total volume of 100 μl. Assays are incubated at 37° C. for 30 minutes and the reaction is terminated by immersion in a boiling water bath for 2 minutes. 85 μl aliquots from each assay are then dried on cellulose paper discs and the unphosphorylated ^3 H-thymidine is removed by washing in 4 mM ammonium formate. The radioactivity remaining bound to the discs is then measured by scintillation spectrophotometry. The degree of inhibition at each concentration of the test compound is expressed as a percentage of a control reaction. The IC50 value, namely the concentration of the test compound which inhibits enzyme activity by 50%, is then calculated. The results obtained with representative compounds of formula I are compiled in the following Table: […]
Chain of herpes simplex virus type 2 (HSV-2) thymidine kinase (P89446 whole entry): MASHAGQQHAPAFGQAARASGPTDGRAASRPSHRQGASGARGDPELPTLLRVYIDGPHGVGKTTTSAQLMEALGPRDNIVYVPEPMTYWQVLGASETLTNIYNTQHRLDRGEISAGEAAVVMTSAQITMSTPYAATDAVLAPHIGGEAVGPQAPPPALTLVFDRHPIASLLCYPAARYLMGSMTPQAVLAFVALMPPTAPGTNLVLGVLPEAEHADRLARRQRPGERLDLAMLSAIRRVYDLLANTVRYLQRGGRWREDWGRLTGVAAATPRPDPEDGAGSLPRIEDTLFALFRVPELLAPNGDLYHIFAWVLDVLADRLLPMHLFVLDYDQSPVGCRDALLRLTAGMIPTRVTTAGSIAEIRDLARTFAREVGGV
Consider `CCc1cn([C@H]2C[C@H](O)[C@@H](CCC(O)Cc3c(Cl)cccc3Cl)O2)c(=O)[nH]c1=O` (mixture of isomers) [Example 5, 5'-[3-(2,6-dichlorophenyl)-2(RS)-hydroxypropyl]-2',5'-dideoxy-5-ethyluridine], for which the IC50 was 16 nM.
In the case of `CCc1cn([C@H]2C[C@H](O)[C@@H](CCC(=O)Cc3c(Cl)cccc3Cl)O2)c(=O)[nH]c1=O` [Example 3, 5'-[3-(2,6-dichlorophenyl)-2-oxopropyl]-2',5'-dideoxy-5-ethyluridine] it was 2.4 nM; in that of `CCc1cn([C@H]2C[C@H](O)[C@@H](CCCCc3ccccc3)O2)c(=O)[nH]c1=O` [Example 7, 2',5'-dideoxy-5-ethyl-5'-(3-phenylpropyl)uridine], 170 nM.
With `CCc1cn([C@H]2C[C@H](O)[C@@H](CS(=O)(=O)Cc3ccccc3)O2)c(=O)[nH]c1=O` [Example 9, 5'-benzylsulphonyl-2',5'-dideoxy-5-ethyluridine], the IC50 turned out to be 600 nM.
`CCc1cn([C@H]2C[C@H](O)[C@@H](CSCc3c(Cl)cccc3Cl)O2)c(=O)[nH]c1=O` [Example 14c, 5'-(2,6-dichlorobenzylthio)-2',5'-dideoxy-5-ethyluridine]: the IC50 turned out to be 72 nM.
